pIC50: −log10 of the molar value.
tested on: RPMI-8226; test: Cellular RPMI-8226 viability assay (CellTiter-Glo, 72 hours); format: cell-based; details: Homo sapiens
Summary of the method: (§1)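 Cells plated in 96 wells and exposed to compound 72 h at 37 °C, 5% CO2, final DMSO below 0.1%, DMSO control. Viability by CellTiter-Glo luminescence, duplicate.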

Row | pIC50 | SMILES
1 | > 6.00 | CNC(=O)c1ccc2nn(-c3ccccc3CNc3nc(N4CCC(N)CC4)nc4c(C(C)C)cnn34)cc2c1 [Compound 14]
2 | 5.00 to 6.00 | CC(C)c1cnn2c(N[C@@H](C)c3ccccc3-n3cccn3)nc(N3CCC(N)CC3)nc12 [Compound 21]
3 | > 6.00 | CC(C)c1cnn2c(NCc3c(Cl)cccc3-n3cccn3)nc(N3CCC(N)CC3)nc12 [Compound 38]

target: T1, CDK5/p25 (Homo sapiens, UniProt Q00535); test: Enzymatic assay for CDK5 (FRET based LANCE Ultra kinase assay); format: biochemical; details: read-out: CDK5 enzymatic activity (IC50 range)
T1 construct: purchased Invitrogen PR8543B
T1 sequence (Q00535 whole entry): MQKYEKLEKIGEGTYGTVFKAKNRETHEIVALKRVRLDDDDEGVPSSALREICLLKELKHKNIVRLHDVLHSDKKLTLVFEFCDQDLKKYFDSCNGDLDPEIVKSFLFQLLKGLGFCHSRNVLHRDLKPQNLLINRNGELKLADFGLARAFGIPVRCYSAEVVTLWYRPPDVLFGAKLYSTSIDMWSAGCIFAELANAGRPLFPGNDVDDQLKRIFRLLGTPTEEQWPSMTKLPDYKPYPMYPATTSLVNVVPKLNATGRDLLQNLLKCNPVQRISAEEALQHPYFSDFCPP
T1 sequence (Q15078 99-307 partner limits assumed): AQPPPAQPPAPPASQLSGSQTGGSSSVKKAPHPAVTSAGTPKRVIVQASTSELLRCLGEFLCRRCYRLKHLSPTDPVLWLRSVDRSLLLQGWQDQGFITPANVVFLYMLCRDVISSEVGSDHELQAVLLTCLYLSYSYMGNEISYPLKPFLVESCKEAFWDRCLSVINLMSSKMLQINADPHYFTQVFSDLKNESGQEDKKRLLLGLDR
Summary of the method: (§2)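 Each CDK complex ([…]) phosphorylated 68 nM ULight-MBP peptide with ATP at Km for 60 min at 23° C., against 8 compound doses (4-fold dilutions). EDTA/Eu-anti-phospho-MBP detection, 60 min, then TR-FRET emission at 615 and 665 nm.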

Row | pIC50 | SMILES
4 | 6.00 to 7.00 | CNC(=O)c1ccc2nn(-c3ccccc3CNc3nc(N4CCC(N)CC4)nc4c(C(C)C)cnn34)cc2c1 [Compound 14]
5 | < 6.00 | CC(C)c1cnn2c(N[C@@H](C)c3ccccc3-n3cccn3)nc(N3CCC(N)CC3)nc12 [Compound 21]
6 | 6.00 to 7.00 | CC(C)c1cnn2c(NCc3c(Cl)cccc3-n3cccn3)nc(N3CCC(N)CC3)nc12 [Compound 38]

tested on: MOLT-4; test: Cellular MOLT-4 viability assay (CellTiter-Glo, 72 hours); format: cell-based; details: Homo sapiens, MOLT4 viability assay
Summary of the method: as §1

Row | pIC50 | SMILES
7 | 5.00 to 6.00 | CC(C)c1cnn2c(NCc3c(Cl)cccc3-n3cccn3)nc(N3CCC(N)CC3)nc12 [Compound 38]

tested on: H460; test: Cellular H460 viability assay (CellTiter-Glo, 72 hours); format: cell-based; details: Homo sapiens, NCI-H460
Summary of the method: as §1

Row | pIC50 | SMILES
8 | > 6.00 | CNC(=O)c1ccc2nn(-c3ccccc3CNc3nc(N4CCC(N)CC4)nc4c(C(C)C)cnn34)cc2c1 [Compound 14]
9 | > 6.00 | CC(C)c1cnn2c(N[C@@H](C)c3ccccc3-n3cccn3)nc(N3CCC(N)CC3)nc12 [Compound 21]
10 | > 6.00 | CC(C)c1cnn2c(NCc3c(Cl)cccc3-n3cccn3)nc(N3CCC(N)CC3)nc12 [Compound 38]

target: T2, CDK1/Cyclin B (Homo sapiens, UniProt P06493); test: Enzymatic assay for CDK1 (FRET based LANCE Ultra kinase assay); format: biochemical; details: read-out: CDK1 enzymatic activity (IC50 range)
T2 construct: purchased Invitrogen PR4768C
T2 sequence (P06493 whole entry): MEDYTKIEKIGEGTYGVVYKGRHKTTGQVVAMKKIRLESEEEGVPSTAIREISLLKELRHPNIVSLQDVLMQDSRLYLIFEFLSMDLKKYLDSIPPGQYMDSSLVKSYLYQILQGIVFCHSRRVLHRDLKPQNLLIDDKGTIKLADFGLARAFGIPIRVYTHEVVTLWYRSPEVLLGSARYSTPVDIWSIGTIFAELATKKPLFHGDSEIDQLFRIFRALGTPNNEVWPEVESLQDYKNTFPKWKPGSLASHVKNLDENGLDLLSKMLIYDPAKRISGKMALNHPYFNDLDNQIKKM
T2 sequence (P14635 whole entry partner): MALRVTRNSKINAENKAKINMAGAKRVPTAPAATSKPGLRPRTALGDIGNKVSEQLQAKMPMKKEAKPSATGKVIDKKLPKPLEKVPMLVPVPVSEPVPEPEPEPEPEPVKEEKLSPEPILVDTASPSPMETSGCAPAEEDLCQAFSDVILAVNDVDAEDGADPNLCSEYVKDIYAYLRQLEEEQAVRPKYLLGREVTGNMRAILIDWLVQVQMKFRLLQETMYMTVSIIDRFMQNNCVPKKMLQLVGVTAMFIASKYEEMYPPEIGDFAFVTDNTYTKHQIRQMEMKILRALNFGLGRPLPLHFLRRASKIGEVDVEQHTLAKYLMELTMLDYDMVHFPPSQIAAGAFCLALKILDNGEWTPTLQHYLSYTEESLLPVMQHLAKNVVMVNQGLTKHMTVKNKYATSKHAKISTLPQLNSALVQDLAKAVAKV
Summary of the method: as §2

Row | pIC50 | SMILES
11 | 6.00 to 7.00 | CNC(=O)c1ccc2nn(-c3ccccc3CNc3nc(N4CCC(N)CC4)nc4c(C(C)C)cnn34)cc2c1 [Compound 14]
12 | < 6.00 | CC(C)c1cnn2c(N[C@@H](C)c3ccccc3-n3cccn3)nc(N3CCC(N)CC3)nc12 [Compound 21]
13 | < 6.00 | CC(C)c1cnn2c(NCc3c(Cl)cccc3-n3cccn3)nc(N3CCC(N)CC3)nc12 [Compound 38]

tested on: MM.1S; test: Cellular MM.1S viability assay (CellTiter-Glo, 72 hours); format: cell-based; details: Homo sapiens, MM1.S
Text: Human T-cell acute lymphoblastic leukemia cell line, MOLT-4 (ATCC, Cat #CRL-1582), Human multiple myeloma cell line, RPMI-8226 (Invitrogen, Cat #22400-089) and MM.1S (ATCC, Cat #CRL-2974), NSCLC (Non-small cell lung cancer) cell line H460 (ATCC, Cat #HTB-177), Human colon colorectal carcinoma cell line HCT116 (ATCC, Cat #CCL-247), Human acute monocytic leukemia cell line MV4-11 (ATCC, Cat #CRL-9591), OVCAR-3 (ATCC, Cat #HTB-161) and A2780 (ECACC, Cat #93112519) were obtained from ATCC. Cells were grown in RPMI-1640 media (Invitrogen, Cat #22400-089) supplemented with 10% FBS (Invitrogen, Cat #10099141) and 1% penicillin/streptomycin (Invitrogen, Cat #15070063) and cultured at 37° C., 5% CO2 in a humidified chamber. All cell lines were routinely tested for mycoplasma.
The effect of the CDK7 inhibitor to inhibit the growth of target cancer cells was evaluated through the 72 hours time period of viability assay. Briefly, the candidate cell line ware plated in 96 well plate at the following density of cells respectively. 1×10^4 cells/well for MOLT-4, RPMI-8226, MV4-11 and MM.1S, 5×10^3 for H460, HCT116 and OVCAR-3 and IX 10^3 for A2780. After 24 hours, the cells were treated with various concentrations of the compound (ranging from 0.0015 uM to 10 uM). DMSO solvent without compound served as a control and final DMSO concentration less than 0.1%. After 72 hours of incubation at 37° C., 5% CO2 incubator, cells were analyzed for the viability using the CellTiter-Glo Luminescent Cell Viability Assay (Promega, Cat #G7570). All viability assays were performed in duplicate and Luminescence was read using an Envision (Perkin Elmer, USA). Data was analyzed using XLfit software.

Row | pIC50 | SMILES
14 | ≥ 6.00 | CNC(=O)c1ccc2nn(-c3ccccc3CNc3nc(N4CCC(N)CC4)nc4c(C(C)C)cnn34)cc2c1 [Compound 14]
15 | ≥ 6.00 | CC(C)c1cnn2c(N[C@@H](C)c3ccccc3-n3cccn3)nc(N3CCC(N)CC3)nc12 [Compound 21]
16 | ≥ 6.00 | CC(C)c1cnn2c(NCc3c(Cl)cccc3-n3cccn3)nc(N3CCC(N)CC3)nc12 [Compound 38]

target: T3, CDK2/Cyclin A (Homo sapiens, UniProt P24941); test: Enzymatic assay for CDK2 (FRET based LANCE Ultra kinase assay); format: biochemical; details: read-out: CDK2 enzymatic activity (IC50 range)
T3 construct: purchased Invitrogen PV6290
Summary of the method: as §2

Row | pIC50 | SMILES
17 | 6.00 to 7.00 | CNC(=O)c1ccc2nn(-c3ccccc3CNc3nc(N4CCC(N)CC4)nc4c(C(C)C)cnn34)cc2c1 [Compound 14]
18 | < 6.00 | CC(C)c1cnn2c(N[C@@H](C)c3ccccc3-n3cccn3)nc(N3CCC(N)CC3)nc12 [Compound 21]
19 | < 6.00 | CC(C)c1cnn2c(NCc3c(Cl)cccc3-n3cccn3)nc(N3CCC(N)CC3)nc12 [Compound 38]

target: T4, CDK7/Cyclin H/MNAT1 (Homo sapiens, UniProt P50613); test: Enzymatic assay for CDK7 (FRET based LANCE Ultra kinase assay); format: biochemical; details: CDK7 over CDK1
T4 construct: purchased Invitrogen PR6749B
T4 sequence (P50613 whole entry): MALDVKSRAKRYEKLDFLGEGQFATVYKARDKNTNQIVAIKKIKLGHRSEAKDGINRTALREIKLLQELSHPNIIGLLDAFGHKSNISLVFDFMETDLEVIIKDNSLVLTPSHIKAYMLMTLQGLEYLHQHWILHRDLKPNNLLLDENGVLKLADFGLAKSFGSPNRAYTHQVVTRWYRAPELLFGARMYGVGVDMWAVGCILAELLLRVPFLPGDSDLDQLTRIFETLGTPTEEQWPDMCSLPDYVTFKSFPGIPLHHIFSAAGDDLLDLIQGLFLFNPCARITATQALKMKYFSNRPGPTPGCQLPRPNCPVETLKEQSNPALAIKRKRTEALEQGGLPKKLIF
T4 sequence (P51946 whole entry partner): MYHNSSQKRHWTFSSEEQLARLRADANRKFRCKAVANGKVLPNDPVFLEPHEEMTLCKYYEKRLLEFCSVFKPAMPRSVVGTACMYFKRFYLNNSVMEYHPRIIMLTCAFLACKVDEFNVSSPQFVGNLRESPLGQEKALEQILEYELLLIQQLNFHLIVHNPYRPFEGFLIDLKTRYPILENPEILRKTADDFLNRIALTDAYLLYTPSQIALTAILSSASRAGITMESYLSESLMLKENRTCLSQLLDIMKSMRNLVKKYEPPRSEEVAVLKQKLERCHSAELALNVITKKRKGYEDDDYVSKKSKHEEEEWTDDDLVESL
T4 sequence (P51948 whole entry partner): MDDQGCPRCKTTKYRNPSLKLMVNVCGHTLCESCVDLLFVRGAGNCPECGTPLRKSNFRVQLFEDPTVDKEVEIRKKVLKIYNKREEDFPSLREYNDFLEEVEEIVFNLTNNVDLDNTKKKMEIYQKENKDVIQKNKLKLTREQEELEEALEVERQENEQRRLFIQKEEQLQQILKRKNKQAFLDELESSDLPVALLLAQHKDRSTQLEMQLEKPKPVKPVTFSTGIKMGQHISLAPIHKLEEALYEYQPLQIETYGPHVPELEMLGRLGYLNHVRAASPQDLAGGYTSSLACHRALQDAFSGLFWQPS
Summary of the method: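 LANCE Ultra TR-FRET kinase assay using a ULight-labeled peptide substrate and a Eu-labeled anti-phospho antibody, with ATP at its Km. Purified CDK/cyclin complex was added to compound after brief centrifugation.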

Row | CDK1/CDK7: Selectivity of CDK7 inhibition over CDK1 inhibition | SMILES
20 | A (A=greater than 200 fold) | CNC(=O)c1ccc2nn(-c3ccccc3CNc3nc(N4CCC(N)CC4)nc4c(C(C)C)cnn34)cc2c1 [Compound 14]
21 | A (A=greater than 200 fold) | CC(C)c1cnn2c(N[C@@H](C)c3ccccc3-n3cccn3)nc(N3CCC(N)CC3)nc12 [Compound 21]
22 | A (A=greater than 200 fold) | CC(C)c1cnn2c(NCc3c(Cl)cccc3-n3cccn3)nc(N3CCC(N)CC3)nc12 [Compound 38]

same assay, conditions: CDK7 over CDK2

Row | CDK2/CDK7: Selectivity of CDK7 inhibition over CDK2 inhibition | SMILES
23 | A (A=greater than 200 fold) | CC(C)c1cnn2c(N[C@@H](C)c3ccccc3-n3cccn3)nc(N3CCC(N)CC3)nc12 [Compound 21]
24 | A (A=greater than 200 fold) | CC(C)c1cnn2c(NCc3c(Cl)cccc3-n3cccn3)nc(N3CCC(N)CC3)nc12 [Compound 38]

Row | SMILES | CDK2/CDK7: Selectivity of CDK7 inhibition over CDK2 inhibition
25 | CNC(=O)c1ccc2nn(-c3ccccc3CNc3nc(N4CCC(N)CC4)nc4c(C(C)C)cnn34)cc2c1 [Compound 14] | B (B=less than 200 fold, but greater than 20 fold)

same assay, conditions: CDK7 over CDK5

Row | SMILES | CDK5/CDK7: Selectivity of CDK7 inhibition over CDK5 inhibition
26 | CNC(=O)c1ccc2nn(-c3ccccc3CNc3nc(N4CCC(N)CC4)nc4c(C(C)C)cnn34)cc2c1 [Compound 14] | B (B=less than 200 fold, but greater than 20 fold)
27 | CC(C)c1cnn2c(N[C@@H](C)c3ccccc3-n3cccn3)nc(N3CCC(N)CC3)nc12 [Compound 21] | A (A=greater than 200 fold)
28 | CC(C)c1cnn2c(NCc3c(Cl)cccc3-n3cccn3)nc(N3CCC(N)CC3)nc12 [Compound 38] | B (B=less than 200 fold, but greater than 20 fold)

same assay, conditions: read-out: CDK7 enzymatic activity (IC50 range)

Row | pIC50 | SMILES
29 | > 7.00 | CNC(=O)c1ccc2nn(-c3ccccc3CNc3nc(N4CCC(N)CC4)nc4c(C(C)C)cnn34)cc2c1 [Compound 14]
30 | > 7.00 | CC(C)c1cnn2c(N[C@@H](C)c3ccccc3-n3cccn3)nc(N3CCC(N)CC3)nc12 [Compound 21]
31 | > 7.00 | CC(C)c1cnn2c(NCc3c(Cl)cccc3-n3cccn3)nc(N3CCC(N)CC3)nc12 [Compound 38]

tested on: HCT116; test: Cellular HCT116 viability assay (CellTiter-Glo, 72 hours); format: cell-based; details: Homo sapiens, HCT-116
Summary of the method: as §1

Row | pIC50 | SMILES
32 | > 6.00 | CNC(=O)c1ccc2nn(-c3ccccc3CNc3nc(N4CCC(N)CC4)nc4c(C(C)C)cnn34)cc2c1 [Compound 14]
33 | > 6.00 | CC(C)c1cnn2c(N[C@@H](C)c3ccccc3-n3cccn3)nc(N3CCC(N)CC3)nc12 [Compound 21]

tested on: MV4-11; test: Cellular MV4-11 viability assay (CellTiter-Glo, 72 hours); format: cell-based; details: Homo sapiens
Summary of the method: as §1

Row | pIC50 | SMILES
34 | > 6.00 | CNC(=O)c1ccc2nn(-c3ccccc3CNc3nc(N4CCC(N)CC4)nc4c(C(C)C)cnn34)cc2c1 [Compound 14]
35 | > 6.00 | CC(C)c1cnn2c(N[C@@H](C)c3ccccc3-n3cccn3)nc(N3CCC(N)CC3)nc12 [Compound 21]
36 | > 6.00 | CC(C)c1cnn2c(NCc3c(Cl)cccc3-n3cccn3)nc(N3CCC(N)CC3)nc12 [Compound 38]
